Source: US20230107216A1, “PANTETHEINE DERIVATIVES AND USES THEREOF” (Comet Therapeutics, Inc., priority 2018, published 2023)
Like-named read-outs stand apart in the source and are kept apart here.

Assays:
[1] = tested on: primary fibroblasts GM00649, GM06225, GM00612, GM00444, GM03672; assay: MMP, ROS and ATP multiplex (ArrayScan); format: cell-based; conditions: Homo sapiens, Fibroblast, procedure Example 838, read-out: Decreased ROS by at least 10%; for inhibition at 50 µM: Leigh GM03672, 50 μM (table line r25)
Procedure: Cell culture and treatments. Primary adherent fibroblasts were cultured in minimum essential medium (MEM) (Gibco, 25030081) supplemented with 2 mM L-Glutamine (Gibco, 25030081), 15% fetal bovine serum (FBS) (Gibco, 26400044) and 1% penicillin/streptomycin (Gibco, 5140122) at 37° C. and 5% CO2. Cells were collected for either passaging or experiment at ˜70-80% confluence. Cells were obtained by trypsinization and seeded at 10000 cells/well in cell culture microplates (Seahorse Bioscience, 101085-004) and allowed to adhere for 16 hours in culture media. After media was refreshed with DMEM (Agilent Seahorse 103575-100) supplemented with 1 mM glucose and 10% FBS (Gibco, 26400044). At the end of the incubation period, the cells were loaded with the relevant dye/antibody for each cell health marker. The assay provided simultaneous measurement of cell health parameters including cell count, ROS formation (DHE), mitochondrial membrane potential (MitoTracker®) and cellular ATP content (CellTiter-Glo®, Promega). The plates were then scanned using an automated fluorescent cellular imager, ArrayScan® (Thermo Scientific Cellomics). Assay conditions were optimized by one skilled in the art.
Primary cells used in this example were obtained from Coriell Institute for Medical Research and consisted of GM00649, MSUD (Maple Syrup Urine Disease) Tyle IA; GM06225, Kearns-Sayre Syndrome; GM00612, MSUD (Maple Syrup Urine Disease) Tyle II GM00444, Pyruvate Carboxylase Deficiency and GM03672, Leigh Syndrome.

[2] = tested on: monocyte-derived M1 macrophages; assay: M1 differentiation assay (macrophage TNFα, IL6, IL10 ELISA, FACS); format: cell-based, human; conditions: for inhibition at 10 µM / activation at 50 µM / activation at 10 µM / inhibition at 50 µM: Homo sapiens, Macrophage; for activation at 50 µM / activation at 10 µM: read-out: % Increase in IL-10 Secretion
Method in brief: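 CD14+ human blood monocytes (100,000) differentiated 6 days with 10 ng/ml GM-CSF plus compound at 10 or 50 μM, refreshed days 2 and 4. Matured 24 h with GM-CSF, IFNγ, LPS plus compound. Supernatant TNFα, IL6, IL10 by ELISA; FACS M1 phenotype CD86+CD68+CD163−.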

[3] = 10 uM, read-out: % decrease in Macrophage IL-6 Secretion
[4] = 10 uM, read-out: % decrease in Macrophage TNFα Secretion
[5] = 50 uM, read-out: % decrease in Macrophage IL-6 Secretion

| SMILES | inhibition at 10 µM [2, 3] [%] | inhibition at 10 µM [2, 4] [%] | activation at 10 µM ([2]; 10 uM) [%] | further results |
| --- | --- | --- | --- | --- |
| CCC(=O)CC(=O)SCCNC(=O)CCNC(=O)[C@H](O)C(C)(C)CO [Compound 382, (2R)-2,4-dihydroxy-3,3-dimethyl-N-[2-([2-[(3-oxopentanoyl)sulfanyl]ethyl]carbamoyl)ethyl]butanamide] | – | – | – | inhibition at 50 µM [1]: ≥ 10% |
| CCC(C)C(=O)CC(=O)SCCNC(=O)CCNC(=O)[C@H](O)C(C)(C)CO (stereo partly drawn) [Compound 1240, S-(2-(3-((R)-2,4-dihydroxy-3,3-dimethylbutanamido)propanamido)ethyl) 4-methyl-3-oxohexanethioate] | ≥ 30 | ≥ 30 | – | % Increase in Live Macrophage Cells ([2]; 10 uM): ≥20%; activation at 50 µM ([2]; 50 uM): ≥ 30% |
| CC[C@@H](O)CC(=O)SCCNC(=O)CCNC(=O)[C@H](O)C(C)(C)CO [Compound 1245, (2R)-2,4-dihydroxy-N-{2-[(2-{[(3R)-3-hydroxypentanoyl]sulfanyl}ethyl)carbamoyl]ethyl}-3,3-dimethylbutanamide] | ≥ 30 | ≥ 30 | ≥ 30 | – |
| CC(C)(CO)[C@@H](O)C(=O)NCCC(=O)NCCSC(=O)C1CCC(=O)N1 (stereo partly drawn) [Compound 1227, S-2-{3-[(R)-2,4-dihydroxy-3,3-dimethylbutyrylamino]propionylamino}ethyl 5-oxo-2-pyrrolidinecarbothioate] | – | ≥ 30 | ≥ 30 | – |
| CC1(CC(=O)SCCNC(=O)CCNC(=O)[C@H](O)C(C)(C)CO)OCCO1 [Compound 1252, (R)—S-(2-(3-(2,4-dihydroxy-3,3-dimethylbutanamido)propanamido)ethyl)-2-(2-methyl-1,3-dioxolan-2-yl)ethanethioate] | ≥ 30 | ≥ 30 | – | % decrease in Live Macrophage Cells ([2]; 50 uM): ≥20%; activation at 50 µM ([2]; 50 uM): ≥ 30% |
| CC(C(=O)SCCNC(=O)CCNC(=O)[C@H](O)C(C)(C)CO)[C@@H](C)O (stereo partly drawn) [Compound 1244, (2R)-2,4-dihydroxy-N-{2-[(2-{[(3R)-3-hydroxy-2-methylbutanoyl]sulfanyl}ethyl)carbamoyl]ethyl}-3,3-dimethylbutanamide] | ≥ 30 | ≥ 30 | – | – |
| COC(=O)/C=C/C(=O)SCCNC(=O)CCNC(=O)[C@H](O)C(C)(C)COP(=O)(O)O [Compound 73, methyl (R,E)-4-((2-(3-(2-hydroxy-3,3-dimethyl-4-(phosphonooxy)butanamido)propanamido)ethyl)thio)-4-oxobut-2-enoate] | – | ≥ 30 | – | inhibition at 50 µM [2, 5]: ≥ 30% |
| CC(O)CC(O)CC(O)CC(=O)SCCNC(=O)CCNC(=O)[C@H](O)C(C)(C)CO (some centres unmarked) [Compound 401] | – | ≥ 30 | – | % decrease in Live Macrophage Cells ([2]; 50 uM): ≥20% |
| CC(C)(CO)[C@@H](O)C(=O)NCCC(=O)NCCSC(=O)CC(O)C(=O)O (some centres unmarked) [Compound 39] | ≥ 30 | ≥ 30 | ≥ 30 | % Increase in Live Macrophage Cells ([2]; 10 uM): ≥20% |
| CC(C)(CO)[C@@H](O)C(=O)NCCC(=O)NCCSC(=O)CC(=O)CCC(=O)O [Compound 2, 6-[(2-[3-[(2R)-2,4-dihydroxy-3,3-dimethylbutanamido]propanamido]ethyl)sulfanyl]-4,6-dioxohexanoic acid] | – | – | – | inhibition at 50 µM [1]: ≥ 10%; inhibition at 5 µM ([1]; PC GM00444, 5 μM): ≥ 10% |
| CC(C)C(=O)CC(=O)SCCNC(=O)CCNC(=O)[C@H](O)C(C)(C)CO [Compound 1239, (R)—S-(2-(3-(2,4-dihydroxy-3,3-dimethylbutanamido)propanamido)ethyl) 4-methyl-3-oxopentanethioate] | ≥ 30 | ≥ 30 | ≥ 30 | % Increase in Live Macrophage Cells ([2]; 10 uM): ≥20% |
| C[C@H](O)CC(=O)CC(=O)SCCNC(=O)CCNC(=O)[C@H](O)C(C)(C)CO [Compound 1306, (2R)-2,4-dihydroxy-N-[2-[(2-[[(5S)-5-hydroxy-3-oxohexanoyl]sulfanyl]ethyl)carbamoyl]ethyl]-3,3-dimethylbutanamide] | – | – | – | inhibition at 50 µM [1]: ≥ 10% |
| COC(=O)C(C)C(=O)SCCNC(=O)CCNC(=O)[C@H](O)C(C)(C)CO (some centres unmarked) [Compound 405] | ≥ 30 | ≥ 30 | ≥ 30 | % decrease in IL-10 Secretion ([2]; 50 uM): ≥30%; % decrease in Live Macrophage Cells ([2]; 50 uM): ≥20% |
| CC(C)(COC(=O)CCC(=O)O)[C@@H](O)C(=O)NCCC(=O)NCCS [Compound 1310, (R)-4-(3-hydroxy-4-((3-((2-mercaptoethyl)amino)-3-oxopropyl)amino)-2,2-dimethyl-4-oxobutoxy)-4-oxobutanoic acid] | ≥ 30 | ≥ 30 | – | activation at 50 µM ([2]; 50 uM): ≥ 30% |
| COC(=O)CC[C@H](N)C(=O)SCCNC(=O)CCNC(=O)[C@H](O)C(C)(C)CO [Compound 411] | – | ≥ 30 | – | % decrease in Live Macrophage Cells ([2]; 50 uM): ≥20% |
| C[C@@H](O)CC(=O)SCCNC(=O)CCNC(=O)[C@H](O)C(C)(C)CO [Compound 38, S-2-{3-[(R)-2,4-dihydroxy-3,3-dimethylbutyrylamino]propionylamino} ethyl (R)-3-hydroxybutanethioate] | ≥ 30 | ≥ 30 | ≥ 30 | % Increase in Live Macrophage Cells ([2]; 50 uM): ≥20% |
| COC(=O)CCC(=O)SCCNC(=O)CCNC(=O)[C@H](O)C(C)(C)CO [Compound 4, Methyl (R)-4-((2-(3-(2,4-dihydroxy-3,3-dimethylbutanamido)propanamido)ethyl)thio)-4-oxobutanoate] | – | ≥ 30 | – | – |
| CC(=O)SCCNC(=O)CCNC(=O)[C@H](O)C(C)(C)COC(=O)CCC(=O)O [Compound 1242, (R)-12-hydroxy-13,13-dimethyl-2,7,11,16-tetraoxo-15-oxa-3-thia-6,10-diazanonadecan-19-oic acid] | ≥ 30 | ≥ 30 | ≥ 30 | % decrease in Live Macrophage Cells ([2]; 10 uM): ≥20% |
| CC(C)=CC(=O)SCCNC(=O)CCNC(=O)[C@H](O)C(C)(C)CO [Compound 37, S-2-{3-[(R)-2,4-dihydroxy-3,3-dimethylbutyrylamino]propionylamino}ethyl 3-methyl-2-butenethioate] | – | ≥ 30 | – | % decrease in IL-10 Secretion ([2]; 10 uM): ≥30%; inhibition at 50 µM [2, 5]: ≥ 30% |
| CC(C)(CO)[C@@H](OC(=O)CCC(=O)O)C(=O)NCCC(=O)NCCS [Compound 1311, (R)-4-((4-hydroxy-1-((3-((2-mercaptoethyl)amino)-3-oxopropyl)amino)-3,3-dimethyl-1-oxobutan-2-yl)oxy)-4-oxobutanoic acid] | ≥ 30 | ≥ 30 | – | % decrease in IL-10 Secretion ([2]; 50 uM): ≥30%; activation at 50 µM ([2]; 50 uM): ≥ 30% |
| CC(O)CC(O)CC(=O)SCCNC(=O)CCNC(=O)[C@H](O)C(C)(C)CO (some centres unmarked) [Compound 400] | – | – | ≥ 30 | inhibition at 50 µM ([2]; 50 uM, read-out: % decrease in Macrophage TNFα Secretion): ≥ 30% |
| C[C@H](CC(=O)SCCNC(=O)CCNC(=O)[C@H](O)C(C)(C)CO)OC(=O)CCC(=O)O [Compound 1243, 4-{[(2R)-4-[(2-{3-[(2R)-2,4-dihydroxy-3,3-dimethylbutanamido]propanamido}ethyl)sulfanyl]-4-oxobutan-2-yl]oxy}-4-oxobutanoic acid] | – | ≥ 30 | – | – |
| COC(=O)CC(C(C)=O)C(=O)SCCNC(=O)CCNC(=O)[C@H](O)C(C)(C)CO (some centres unmarked) [Compound 410] | – | – | – | inhibition at 50 µM [1]: ≥ 10% |
| CC(C)(CO)[C@@H](O)C(=O)NCCC(=O)NCCSC(=O)CCCO [Compound 1304, (2R)-2,4-dihydroxy-N-[2-([2-[(4-hydroxybutanoyl)sulfanyl]ethyl]carbamoyl)ethyl]-3,3-dimethylbutanamide] | – | – | – | inhibition at 50 µM [1]: ≥ 10% |
| CC(=O)OCC(C)(C)[C@@H](O)C(=O)NCCC(=O)NCCSC(=O)CC(=O)CCC(=O)O [Compound 140, 6-[(2-[3-[(2R)-4-(acetyloxy)-2-hydroxy-3,3-dimethylbutanamido]propanamido]ethyl)sulfanyl]-4,6-dioxohexanoic acid] | – | – | – | inhibition at 50 µM [1]: ≥ 10% |
| C/C=C/C(=O)SCCNC(=O)CCNC(=O)[C@H](O)C(C)(C)COP(=O)(O)O [Compound 82, (R)—S-(2-(3-(2-hydroxy-3,3-dimethyl-4-(phosphonooxy)butanamido)propanamido)ethyl) (E)-but-2-enethioate] | – | ≥ 30 | – | inhibition at 50 µM [2, 5]: ≥ 30% |
